Source: patent publication US20020169111A1, “Reversal of multidrug resistance in human colon carcinoma cells” (American Cyanamid Comany, priority 1998, published 2002)

Assays:
8226/MR4 cells = test: Reversal of mitoxantrone resistance in myeloid cells; assay type: cell-based, human; details: selected for resistance to mitoxantrone
S1-B1-20 cells = test: Reversal of resistance in P-gp expressing cells, alone or with 21 μM bisantrene; assay type: cell-based, human; set-up: Difference Score: unit not given here; details: for Per Cent Survival with 21 μM bisantrene / Per Cent Survival Alone / Difference Score: S1-B1-20 cells; for Difference Score: survival alone minus survival with 21 μM bisantrene
Procedure: To determine the specificity of FTC for non P-gp multidrug resistance, FTC was tested on S1-B1-20 cells which were selected for resistance to bisantrene and which express high levels of P-gp (Table 9)(Zhang, et al, Oncol. Res. 6291-301 (1994)). […] The 21 μM concentration of bisantrene is not inhibitory to the growth of the cells. Values shown are mean ± standard deviation from triplicate test wells.

H460 = test: Sensitization of unselected cells to mitoxantrone; assay type: cell-based; details: H460 non small cell lung carcinoma, not selected
MCF-7 cells = assay type: cell-based, human; details: 1 hour retention phase
Procedure: (§1) All incubations were carried out in the absence or presence of FTC (1 or 5 μM).

MCF-7/BCRP cells = assay type: cell-based, human; details: MCF-7/BCRP
Procedure: as §1

[1] = 1 μM [14C]-doxorubicin, 1 hour retention phase
[2] = 1 μM daunorubicin, 1 hour retention phase

COc1ccc2c3c([nH]c2c1)[C@H](C=C(C)C)N1C(=O)[C@@H]2CCCN2C(=O)[C@@H]1C3 [Fumitremorgin C]
reversal of resistance in 8226/MR4 cells (in words) (8226/MR4 cells): reversed low level resistance
Per Cent Survival with 21 μM bisantrene (S1-B1-20 cells; drug 0.1 μM): 101 ± 1 Per Cent
Per Cent Survival Alone (S1-B1-20 cells; drug 0.1 μM alone): 99 ± 1 Per Cent
Difference Score (S1-B1-20 cells; drug 0.1 μM): −4
Per Cent Survival with 21 μM bisantrene (S1-B1-20 cells; drug 0.5 μM): 103 ± 1 Per Cent
Per Cent Survival Alone (S1-B1-20 cells; drug 0.5 μM alone): 99 ± 1 Per Cent
Difference Score (S1-B1-20 cells; drug 0.5 μM): −4
Per Cent Survival with 21 μM bisantrene (S1-B1-20 cells; drug 1 μM): 100 ± 0 Per Cent
Per Cent Survival Alone (S1-B1-20 cells; drug 1 μM alone): 98 ± 3 Per Cent
Difference Score (S1-B1-20 cells; drug 1 μM): −2
Per Cent Survival with 21 μM bisantrene (S1-B1-20 cells; drug 5 μM): 103 ± 2 Per Cent
Per Cent Survival Alone (S1-B1-20 cells; drug 5 μM alone): 101 ± 3 Per Cent
Difference Score (S1-B1-20 cells; drug 5 μM): −2
Per Cent Survival with 21 μM bisantrene (S1-B1-20 cells; drug 10 μM): 93 ± 1 Per Cent
Per Cent Survival Alone (S1-B1-20 cells; drug 10 μM alone): 88 ± 0 Per Cent
Difference Score (S1-B1-20 cells; drug 10 μM): −4
Per Cent Survival with 21 μM bisantrene (S1-B1-20 cells; drug 20 μM): 89 ± 1 Per Cent
Per Cent Survival Alone (S1-B1-20 cells; drug 20 μM alone): 85 ± 0 Per Cent
Difference Score (S1-B1-20 cells; drug 20 μM): −4
Per Cent Survival with 21 μM bisantrene (S1-B1-20 cells; drug 40 μM): 77 ± 2 Per Cent
Per Cent Survival Alone (S1-B1-20 cells; drug 40 μM alone): 83 ± 1 Per Cent
Difference Score (S1-B1-20 cells; drug 40 μM): 13
Per Cent Survival with 21 μM bisantrene (S1-B1-20 cells; drug 80 μM): 53 ± 5 Per Cent
Per Cent Survival Alone (S1-B1-20 cells; drug 80 μM alone): 35 ± 1 Per Cent
Difference Score (S1-B1-20 cells; drug 80 μM): −18
reversal of resistance in P-gp positive S1-B1-20 cells (in words) (S1-B1-20 cells; bisantrene-selected): did not reverse resistance
sensitization to mitoxantrone (in words) (H460): can be sensitized to mitoxantrone
[^14C] doxorubicin retention, 1 μM FTC (MCF-7 cells; 1 μM [14C]-doxorubicin): 10.3 ± 0.26 DPM per microgram protein
[^14C] doxorubicin retention, 5 μM FTC (MCF-7 cells; 1 μM [14C]-doxorubicin): 11.0 ± 0.71 DPM per microgram protein
daunorubicin retention, Channel Number (fluorescence units), 1 μM FTC (MCF-7 cells; 1 μM daunorubicin): 16.0 ± 0.98 fluorescence units
daunorubicin retention, Channel Number (fluorescence units), 5 μM FTC (MCF-7 cells; 1 μM daunorubicin): 16.8 ± 1.0 fluorescence units
[^14C] doxorubicin retention, 1 μM FTC (MCF-7/BCRP cells; [1]): 9.5 ± 0.63 DPM per microgram protein
[^14C] doxorubicin retention, 5 μM FTC (MCF-7/BCRP cells; [1]): 9.9 ± 0.18 DPM per microgram protein
daunorubicin retention, Channel Number (fluorescence units), 1 μM FTC (MCF-7/BCRP cells; [2]): 12.2 ± 1.78 fluorescence units
daunorubicin retention, Channel Number (fluorescence units), 5 μM FTC (MCF-7/BCRP cells; [2]): 15.6 ± 0.94 fluorescence units
increase of amount of [^14C]-doxorubicin retained compared with untreated cells (MCF-7/BCRP cells; FTC 1 or 5 μM): 1.8 fold
increase of amount of daunorubicin retained compared with untreated cells (MCF-7/BCRP cells; FTC 1 or 5 μM): 1.8-2.3 fold
